Data set [1] deals with Tg(nphs2:GAL4-VP16); Tg(UAS:Eco.nfsB-mCherry) zebrafish larvae. The experiment in a line: Edema progression in zebrafish larvae after MTZ podocyte injury (FSGS model), edema types 1-4. The format is in vivo. Particulars: for edema progression/formation at 10 μM: 10 μM compound in conjunction with MTZ, compared to MTZ group; for edema progression/formation at 10 μM / most effective concentration for prevention of proteinuric edema: until 8 dpf; for lethality at 100 μM: 100 μM compound in conjunction with MTZ (2 days); for effect in terms of proteinuric edema progression/formation: injury model, in conjunction with MTZ; for progression of podocyte injury induced in the disease model: zebrafish larvae model of FSGS, effects concentration-dependent; for most effective concentration for prevention of proteinuric edema: different concentrations in conjunction with MTZ. The procedure:
The results are depicted in FIG. 4. A treatment for 48 hours from 4 to 6 dpf with MTZ induces edema formation of four different severities in this strain, scaling from type 1=no edema to type 4=severe edema (FIG. 3). Edema severity of larvae treated with DMSO, MTZ and MTZ plus 1 μM, 10 μM or 100 μM belinostat was categorized at 6, 7 and 8 dpf (FIG. 4). […] Co-treatment with MTZ and 100 μM belinostat induced edema formation in 15% of larvae with 0% type 4 edema in contrast to 60% edema with 31% type 4 edema in the MTZ group. At 7 dpf, progression of edema formation was decelerated in all three groups for all three types of edema that received belinostat, again in a dose-dependent manner. MTZ caused type 4 edema in 56.4% of larvae at 7 dpf, contrary to 1.9% edema in the MTZ+100 μM belinostat group. […] 83.6% of larvae treated with MTZ developed edema with 58.2% showing type 4 edema. […] 10 μM belinostat+MTZ induced edema 80% of larvae with 34.5% type 4 edema. Co-treatment of MTZ with 100 μM belinostat caused edema formation in 64.2% of larvae with 28.3% type 4 edema (FIG. 4).
FIG. 3 depicts the different degrees of podocyte injury progression: 1: no edema, 2: slight edema, 3: moderate edema, 4: severe edema. Black arrowheads show periocular and blank arrowheads depict abdominal edema. Scale bar: 500 μm.
FIG. 4 depicts the results of Example 3, measuring the edema progression in larvae that were treated with different concentrations of belinostat in conjunction with MTZ. Edema progression was measured according to the categories of in larvae until 8 dpf following MTZ injury with various concentration of belinostat (DMSO n=52, MTZ n=55, MTZ+1 μM belinostat n=52, MTZ+10 μM belinostat n=55, MTZ+100 μM belinostat n=53).

In data set [2] the test system is Mice (C57BL/6). The experiment in a line: NTS (nephrotoxic serum) induced glomerular injury in mice, plasma creatinine. The format is in vivo, mouse. The following applies: NTS with low dose belinostat (25 mg/kg) compared to NTS injury group. Here is the method:
Mice (C57BL/6) were treated with PBS (healthy control), NTS (nephrotoxic serum, injury control), NTS with low dose belinostat (25 mg/kg) and NTS with high dose belinostat (50 mg/kg).

Data set [3] has as its system wildtype (AB/TU strain) zebrafish larvae. The data set is described as follows: Toxicity of belinostat treatment on wildtype zebrafish larvae. The following applies: 250 μM belinostat, treated for 48 hours, at day 8. The format is in vivo. The procedure:
Larvae were treated for 48 hours and edema as well as malformations were assessed until 8 dpf.

Data set [4] has as its system podocytes / glomerular filtration barrier of MTZ-injured zebrafish larvae. The experiment in a line: Zebrafish larvae podocyte injury screening: vascular eGFP (proteinuria) and glomerular mCherry (podocyte depletion) fluorescence ratios. The following applies: for podocyte protection in drug library screen: co-treatment 80 μM MTZ + 100 μM compound, 24 h from 4 to 5 dpf, 12 larvae per compound. The procedure:
Groups of 12 larvae from one clutch were distributed into a 24-well plate (#662160 Greiner, Frickenhausen, Germany). For each clutch, 12 larvae were treated with 0.2% DMSO in E3 as negative control and 12 larvae were treated with 80 μM Metronidazole (MTZ) in DMSO in E3 as injury control and comparison group. The Fraunhofer ScreeningPort IME provided an epigenetic drug library which was used for this screening (Table 1). […] The treatment volume was 400 μl for each well with 12 larvae, the wells were sealed with Adhesive Clear PCR Seal (#600208, Biozym Scientific GMBH, Hessisch-Oldendorf) in order to prevent evaporation and plates were incubated at 28.5° C., wrapped in aluminum foil to prevent effects of light. After 24 hours, compounds were washed out in three changes of 0.5×E3.
After washout at 5 dpf, E3 in the 12-well plate was replaced with E3 containing 0.4 mg/ml tricaine. Larvae were then individually transferred into wells of a 96-well plate (#644101, Greiner) which was prepared with custom agarose molds. For the molds, 45 μl of 0.7% boiling hot agarose (Biozym LE agarose) were transferred with a multichannel pipette into each well. After 3 min cooldown, a custom 3D printed orientation tool (Wittbrodt, Jonas N., Urban Liebel, and Jochen Gehrig. “Generation of orientation tools for automated zebrafish screening assays using desktop 3D printing.” BMC biotechnology 14.1 (2014): 1-6) was inserted into the agarose which produced cavities for orientation. Each larva was transferred with 100 μl tricaine containing E3 into the single wells of the 96-well plate (Row A was always 12×DMSO, Row B was always 12×MTZ, Row C-H were compounds+MTZ) and was then oriented laterally in the molds with a short piece of fishing line glued to a bend injection needle under the stereomicroscope manually with special attention to a flat caudal region.
Image acquisition for the screening was performed with an Imaging Machine ([…] Imaging GmbH, Heidelberg, Germany). […] Overview images of each laterally oriented larva were obtained with a 2× objective (40% LED intensity, 30 ms integration). For each larva, a region of interest (ROI) at the tail region caudal of the cloaca was selected with the Acquifer PlateViewer (V1.7.1, […]) for the 10× objective in order to image the blood flow and vasculature. After creating custom modificated imaging scripts via FIJI (Schindelin, Johannes, et al. “Fiji: an open-source platform for biological-image analysis.” Nature methods 9.7 (2012): 676-682), 10 consecutive brightfield frames at a framerate of 33 Hz were acquired (10× objective, 100% LED intensity, 30 ms integration) followed by one frame at 470 nm (10× objective, 50% LED intensity, 50 ms integration). […] The focal plane for both acquisitions was detected with a built-in two-step software autofocus (10× objective, 2×2 binning, 10% LED intensity, 10 ms integration, first step: 31 slices with 50 μm distance, second step: 10 slices with 10 μm slice distance, brightfield for the caudal vasculature, 555 nm for glomerular mCherry).
Following image acquisition, tricaine-containing E3 was washed out two times of each well and replaced by 150 μl E3. […] In this way, two values for the vascular eGFP fluorescence and two values for the glomerular mCherry fluorescence were obtained for each individual larva.

The mark [5] stands for this setting: 10 μM compound + 80 μM MTZ vs MTZ alone.

Regarding `O=C(CCCCCN1C(=O)c2cccc3cccc(c23)C1=O)NO` [Scriptaid, 6-(1,3-Dioxo-1H,3H-benzo[de]isoquinolin-2-yl)-N-hydroxyhexanamide], in data set [1], the “edema progression/formation at 10 μM” value is given as “successfully prevented edema progression”, the “lethality at 100 μM” value is reported as “in the lethal range”, the “effect in terms of proteinuric edema progression/formation” value is on record as “protective effect” and the “progression of podocyte injury induced in the disease model” value (“progression of podocyte injury induced” for short) was “significantly slowed the progression of podocyte injury”.

`O=C(/C=C/c1ccc(CN(CCO)CCc2c[nH]c3ccccc23)cc1)NO` [Dacinostat, (E)-N-hydroxy-3-[4-[[2-hydroxyethyl-[2-(1H-indol-3-yl)ethyl]amino]methyl]phenyl]prop-2-enamide]: in data set [1], the “edema progression/formation at 10 μM” value is reported as “successfully prevented edema formation”, the “lethality at 100 μM” value is recorded as “lethal”, the “effect in terms of proteinuric edema progression/formation” value is “protective effect” and the “progression of podocyte injury induced” value was “significantly slowed the progression of podocyte injury”.

For the compound `CC(C)[C@H](C(=O)Nc1ccc(C(=O)NO)cc1)c1ccccc1` [AR-42, N-hydroxy-4-[[(2S)-3-methyl-2-phenylbutanoyl]amino]benzamide], in data set [1], the “edema progression/formation at 10 μM” value was “able to prevent proteinuric edema”, the “lethality at 100 μM” value is given as “lethal”, the “effect in terms of proteinuric edema progression/formation” value was “protective effect” and the “progression of podocyte injury induced” value is given as “significantly slowed the progression of podocyte injury”.

`O=C(/C=C/c1cccc(S(=O)(=O)Nc2ccccc2)c1)NO` [belinostat, (2E)-N-hydroxy-3-[3-(phenylsulfamoyl)phenyl]prop-2-enamide]: the “larvae with type 4 edema” value in data set [1] (MTZ + 1 μM belinostat, 8 dpf (MTZ group 58.2%)) worked out at 44.2%; in data set [1] (MTZ + 10 μM belinostat, 8 dpf (MTZ group 58.2%)), 34.5%; in data set [1] (MTZ + 100 μM belinostat, 6 dpf (MTZ group 31%)), 0%; in data set [1] (MTZ + 100 μM belinostat, 8 dpf (MTZ group 58.2%)), 28.3%. In addition, the “larvae with edema formation” value in data set [1] (MTZ + 1 μM belinostat, 8 dpf (MTZ group 83.6%)) came out at 80.8%; in data set [1] (MTZ + 10 μM belinostat, 8 dpf (MTZ group 83.6%)), 80%; in data set [1] (MTZ + 100 μM belinostat, 6 dpf (MTZ group 60%)), 15%; in data set [1] (MTZ + 100 μM belinostat, 8 dpf (MTZ group 83.6%)), 64.2%. Further, in data set [1] (MTZ + 100 μM belinostat, 7 dpf (MTZ group type 4 edema 56.4%)), the “larvae with edema (contrasted with type 4 edema of MTZ group)” value is listed as 1.9%. For the same compound, the “progression of edema formation” value in data set [1] (MTZ + 1, 10 or 100 μM belinostat, 7 dpf, dose-dependent) is “decelerated”. Besides, the “number of larvae with type 3 and 4 edema” value in data set [1] (MTZ + 1, 10 or 100 μM belinostat, after washout at 6 dpf, dose-dependent) is “reduced number of larvae with type 3 and 4 edema”. In addition, in data set [1] (MTZ from 4-6 dpf and continuously belinostat until 8 dpf, vs belinostat until day 6), the “edema progression with continuous treatment” value is listed as “ameliorated most”. In data set [1] (belinostat treatment groups, 8 dpf), the “delay in edema formation” value was “stayed consistent”. The “progression of podocyte injury induced” value in data set [1] was “significantly slowed the progression of podocyte injury”. Further, in data set [2], the plasma creatinine concentration result is recorded as “reduce plasma creatine concentrations significantly”. In addition, the “larvae for which treatment is lethal” value in data set [3] is recorded as 35%. Moreover, the “loss of podocyte mCherry fluorescence (glomerular fluorescence ratio 6 dpf/5 dpf)” value in data set [4] (setting [5]) is reported as “significantly reduced loss of podocyte mCherry fluorescence”. For the same compound, the “renal leakage of 78 kDa VDP-eGFP through the glomerular filtration barrier (vascular eGFP fluorescence ratio 6 dpf/5 dpf)” value in data set [4] (setting [5]) was “could prevent the renal leakage”. Further, the “harmful effect on the glomerular filtration barrier or podocyte vitality” value in data set [4] (10 μM compound alone, without MTZ injury) is “no harmful effect”. For the same compound, the “podocyte protection in drug library screen” value in data set [4] is given as “podocyte-protective”.

For `O=C(CCCCCCC(=O)Nc1ccccc1)NO` [Vorinostat, N′-hydroxy-N-phenyloctanediamide], in data set [1] (100 μM compound in conjunction with MTZ, 6 dpf), the “formation of moderate (type 3) edema” value is “able to prevent formation of moderate edema”. In data set [1], the “effect in terms of proteinuric edema progression/formation” value is “protective effect” and the “progression of podocyte injury induced” value is recorded as “significantly slowed the progression of podocyte injury”.

Take `C#Cc1cccc(Nc2ncnc3cc(OC)c(OCCCCCCC(=O)NO)cc23)c1` [CUDC-101, 7-[4-(3-ethynylanilino)-7-methoxyquinazolin-6-yl]oxy-N-hydroxyheptanamide]: in data set [1], the “most effective concentration for prevention of proteinuric edema” value is 10 µM, the “effect in terms of proteinuric edema progression/formation” value is recorded as “protective effect” and the “progression of podocyte injury induced” value was “significantly slowed the progression of podocyte injury”.

On to `O=C(/C=C/C#Cc1cccc(NS(=O)(=O)c2ccccc2)c1)NO` [oxamflatin, 5-[3-(benzenesulfonamido)phenyl]-N-hydroxypent-2-en-4-ynamide], for which, in data set [1], the “most effective concentration for prevention of proteinuric edema” value is 100 µM and the “progression of podocyte injury induced” value is reported as “significantly slowed the progression of podocyte injury”. In addition, in data set [4], the “podocyte protection in drug library screen” value was “podocyte-protective”.

The values are drawn from patent publication US20250367145A1, “COMPOUNDS FOR USE IN THE TREATMENT OF KIDNEY DISEASES” (Universitätsmedizin Greifswald, priority 2022, published 2025).
